Assay results: patent US7615514B2, “Selective herbicides based on substituted arylsulphonylaminocarbonyl-triazolinones and safeners” (Bayer CropScience AG, priority 2001, dated 2009)

System: Winter barley
Assay: Post-emergence test/greenhouse: damage to crop plants
Assay type: in vivo
Conditions: greenhouse, about three weeks after application
Protocol: The active compound (flucarbazone-sodium and propoxycarbazone-sodium were each used as WG 70) or safener components are in each case dissolved in a few ml (generally 2-3 ml) of solvent (generally acetone or N,N-dimethyl-formamide), and the solutions are combined and then—if appropriate after addition of an emulsifier—diluted with water to the desired concentration. In general, an aqueous spray liquor was prepared using 0.5% of the additive Renex-36. The test plants are grown under controlled conditions (temperature, light, atmospheric humidity) in a greenhouse. The test plants are sprayed when they have reached a height of 5-15 cm. The concentration of the spray liquor is chosen such that the particular amounts of active compound desired are applied in 500 l of water/ha. After spraying, the pots with the test plants are kept in a greenhouse chamber under controlled conditions (temperature, light, atmospheric humidity) until the test has ended. About three weeks after the application, the degree of damage to the crop plants is rated in % damage in comparison to the development of the untreated control. The figures denote: • 0%=no damage (like untreated control) • 100%=total destruction/damage

Structure (SMILES) | Damage Winter barley (in %) (application rate 2 g of a.i./ha) | Damage Winter barley (in %) (application rate 4 g of a.i./ha, 0%=no damage, 100%=total destruction) | Damage Winter barley (in %) (application rate 8 g of a.i./ha)
CCCOc1nn(C(=O)NS(=O)(=O)c2ccccc2C(=O)OC)c(=O)n1C [propoxycarbazone-sodium, 2-(2-methoxycarbonylphenylsulphonylaminocarbonyl)-4-methyl-5-n-propoxy-2,4-dihydro-3H-1,2,4-triazol-3-one] | 35% | 60% | 
COc1nn(C(=O)NS(=O)(=O)c2ccccc2OC(F)(F)F)c(=O)n1C [flucarbazone-sodium, 2-(2-trifluoromethoxyphenylsulphonylaminocarbonyl)-4-methyl-5-methoxy-2,4-dihydro-3H-1,2,4-triazol-3-one] |  |  | 40%
